Assays:
MCF-7 cells = assay: In vitro cell activity assay (MCF-7, insulin stimulation, ELISA-One); format: cell-based; conditions: Homo sapiens, MCF7, compound 2 hours in serum-free media, then 10 μg/ml insulin 30 min
Procedure: Experimental Steps and Method Comprise:
1. MCF-7 cells were seeded at 2,5000 cells per well in a 96 well tissue culture plate in a complete media containing 10%0/FBS.
3. The cells were treated with 10 μg/ml insulin in serum-free media for 30 min.
4. During waiting period, lysis solution was prepared as below:
a) Enhancer Solution needs to be taken out from the refrigerator to be thawed.
b) Concentrated lysis solution was prepared by diluting Enhancer Solution 10-fold in 5× Lysis Buffer.
c) Lysis solution was prepared by diluting concentrated lysis solution 5-fold with ddH2O.
5. Any media were removed from wells and the wells were rinsed with PBS once quickly.
6. 50 μL of freshly prepared lysis solution were added into each well, with shaking at room temperature for 10 min.
7. After confirming that all cells get detached from wells, the lysis solution together with the cell debris was transferred to 1.5 ml tubes.
8. The tubes were vortexed several times to thoroughly mix the lysis solution and cells, and then, and then the mixture was centrifuged at 12,000 g for 10 min at 4° C.;
9. The desired number of ELISA-One microplate strips was determined. Unused strips were removed from frame and returned to storage pouch and seal. Wells for use in the assay were rinsed with 200 μL ddH2O to remove preservatives prior to use.
10. 50 μL of antibody mixture solution was added into each well. (Antibody mixture solution was prepared by mixing capture antibody reagent and detection antibody reagent equally, avoid vortexing)
11. 25 μL of lysate was added into each well of the ELISA-One microplate. The microplate was covered with adhesive seal and incubated for 1 hour at room temperature on a microplate shaker.
12. Each well was washed with 150 μL 1× wash buffer 3 times. After final wash, any remaining wash buffer was removed from wells. If necessary, leave microplate in 1× Wash Buffer for up to 30 min, until substrate mixture solution has been prepared.
13. The substrate mixture solution should be prepared when used, 100 μL of substrate mixture solution was added into each well, and then the microplate was sealed with tin foil and incubated at room temperature for 10 minutes on a microplate shaker.
14. 10 μL of stop solution was added into each well, and then mixed slightly (5-10 seconds) on a microplate shaker.
15. Corresponding ELISA-One filter set was installed to read the fluorescence signal intensity.

PI3K (p110α) = PI3K (p110α) (Homo sapiens, UniProt P42336); assay: In vitro enzyme activity assay, PI3K (p110α) kinase, Method II (ADP-Glo assay); format: biochemical; set-up: purchased Millipore 14-602-K; conditions: read-out: PI3K (p110α) enzyme activity_IC50
Procedure: PI3K (p110α) kinase activities of the compounds in all the examples of the present invention were tested via the following two methods, respectively.
Dilution of the Compound:
The compound to be tested was diluted with a 3-fold concentration gradient, and 10 concentrations (from 10000 nM to 0.5 nM) were obtained in total.
50 nL of the compound was transferred to a reaction plate (PerkinElmer #6007299) and 3 μL of enzyme/substrate mixture (0.33 nM PI3Kalpha, Millipore #14-602-K/166.5 μM PIP2) was added. After 20 min incubation, 2 uL of ATP solution (100 uM) was added to initiate the reaction. After reacting for 2 hours at room temperature, 5 μL of ADP-Glo reagent was added to terminate the kinase reaction. Then the mixture was incubated at room temperature for 60 min to completely digest the remaining unreacted ATP, 10 uL of kinase detection reagent was added, and after 40 min incubation at room temperature, […] was readed on an Envision. PIP2, ATP, ADP-Glo and the kinase detection reagent were all from ADP-Glo kinase assay kit (Promega #V1792).
IC50 was calculated using standard 4-parameter fit method (Model205, XL-fit, iDBS).

Chain of PI3K (p110α) (P42336 whole entry): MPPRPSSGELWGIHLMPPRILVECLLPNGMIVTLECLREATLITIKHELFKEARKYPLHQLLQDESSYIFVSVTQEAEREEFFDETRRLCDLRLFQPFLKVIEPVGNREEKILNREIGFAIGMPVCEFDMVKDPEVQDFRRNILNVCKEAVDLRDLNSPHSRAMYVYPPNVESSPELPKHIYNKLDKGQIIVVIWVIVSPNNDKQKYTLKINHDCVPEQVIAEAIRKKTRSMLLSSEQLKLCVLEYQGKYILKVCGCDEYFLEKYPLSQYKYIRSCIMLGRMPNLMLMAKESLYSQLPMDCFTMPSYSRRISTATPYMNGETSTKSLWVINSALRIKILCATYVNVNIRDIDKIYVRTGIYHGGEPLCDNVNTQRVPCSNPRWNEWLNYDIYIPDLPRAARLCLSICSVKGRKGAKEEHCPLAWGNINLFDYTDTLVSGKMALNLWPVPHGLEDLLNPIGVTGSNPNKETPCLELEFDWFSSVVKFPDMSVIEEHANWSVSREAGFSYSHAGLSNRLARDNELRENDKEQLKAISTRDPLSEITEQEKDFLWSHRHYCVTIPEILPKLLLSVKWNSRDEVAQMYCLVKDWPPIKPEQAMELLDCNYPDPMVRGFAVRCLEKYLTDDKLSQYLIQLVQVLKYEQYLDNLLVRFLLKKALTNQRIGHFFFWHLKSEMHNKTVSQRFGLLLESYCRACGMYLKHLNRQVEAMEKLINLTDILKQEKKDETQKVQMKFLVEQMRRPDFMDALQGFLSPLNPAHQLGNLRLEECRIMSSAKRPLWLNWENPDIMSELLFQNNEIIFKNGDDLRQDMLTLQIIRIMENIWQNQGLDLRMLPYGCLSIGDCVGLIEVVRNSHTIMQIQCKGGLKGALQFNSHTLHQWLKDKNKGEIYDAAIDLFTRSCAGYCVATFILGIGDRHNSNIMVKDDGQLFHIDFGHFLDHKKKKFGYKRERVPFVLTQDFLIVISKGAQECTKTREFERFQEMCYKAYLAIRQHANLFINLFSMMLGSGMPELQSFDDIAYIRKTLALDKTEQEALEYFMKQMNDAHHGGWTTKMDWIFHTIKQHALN
Chain of PI3K (p110α) (P27986 whole entry partner): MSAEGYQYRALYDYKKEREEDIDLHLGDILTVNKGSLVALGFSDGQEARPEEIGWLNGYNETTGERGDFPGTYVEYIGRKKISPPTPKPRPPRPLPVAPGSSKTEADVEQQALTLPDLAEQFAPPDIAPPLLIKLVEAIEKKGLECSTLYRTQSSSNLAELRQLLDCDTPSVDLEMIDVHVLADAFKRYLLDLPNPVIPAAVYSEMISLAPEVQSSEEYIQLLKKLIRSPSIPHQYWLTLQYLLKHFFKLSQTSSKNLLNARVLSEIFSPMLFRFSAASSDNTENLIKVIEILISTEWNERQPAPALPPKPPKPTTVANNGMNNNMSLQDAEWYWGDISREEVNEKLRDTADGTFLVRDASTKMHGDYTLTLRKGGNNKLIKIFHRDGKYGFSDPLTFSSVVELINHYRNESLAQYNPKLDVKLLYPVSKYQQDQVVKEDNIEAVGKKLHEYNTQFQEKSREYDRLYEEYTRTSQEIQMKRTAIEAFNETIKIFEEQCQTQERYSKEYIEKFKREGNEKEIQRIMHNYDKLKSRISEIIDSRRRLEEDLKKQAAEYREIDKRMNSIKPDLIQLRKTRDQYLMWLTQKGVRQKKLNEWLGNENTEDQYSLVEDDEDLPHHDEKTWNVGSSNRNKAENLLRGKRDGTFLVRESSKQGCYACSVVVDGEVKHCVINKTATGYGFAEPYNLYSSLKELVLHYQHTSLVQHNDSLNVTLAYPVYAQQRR

Row | IC50 (MCF-7 cells) [nM] | IC50 (PI3K (p110α)) [nM] | Compound
1 | 50 to 100 | ≤ 1 | COc1ncc(-c2ccc3ncc(OCCN4CCN(C)CC4)c(=O)n3c2)cc1NS(=O)(=O)c1sc(C)nc1C [Compound 4]
2 | > 250 | ≤ 1 | COc1ncc(-c2ccc3ncc(OCCN4CC5CC4CN5C)c(=O)n3c2)cc1NS(=O)(=O)c1sc(C)nc1C (stereo not shown) [Compound 5]
3 | ≤ 50 | ≤ 1 | COc1ncc(-c2ccc3ncc(OCCN4CCCC4=O)c(=O)n3c2)cc1NS(=O)(=O)c1sc(C)nc1C [Compound 21, N-(2-Methoxy-5-(4-oxo-3-(2-(2-oxopyrrolidin-1-yl)ethoxy)-4H-pyrido[1,2-a]pyrimidin-7-yl)pyridin-3-yl)-2,4-dimethylthiazole-5-sulfonamide]
4 | 100 to 250 | ≤ 1 | COc1ncc(-c2ccc3ncc(OCCNC(C)=O)c(=O)n3c2)cc1NS(=O)(=O)c1ccc(F)cc1Cl [Compound 22]
5 | 50 to 100 | ≤ 1 | COc1ncc(-c2ccc3ncc(OCCNS(C)(=O)=O)c(=O)n3c2)cc1NS(=O)(=O)c1ccc(F)cc1Cl [Compound 23]
6 | ≤ 50 |  | COc1ncc(-c2ccc3ncc(OCC4CN(C)C4)c(=O)n3c2)cc1NS(=O)(=O)c1ccc(F)cc1Cl [Compound 28]
7 | > 250 |  | COc1ncc(-c2ccc3ncc(OCC4(C)CNC4)c(=O)n3c2)cc1NS(=O)(=O)c1ccc(F)cc1Cl [Compound 29]
8 | > 250 |  | COc1ncc(-c2ccc3ncc(OC4CNC4)c(=O)n3c2)cc1NS(=O)(=O)c1ccc(F)cc1Cl [Compound 30]
9 | > 250 | ≤ 1 | COc1ncc(-c2ccc3ncc(OCC4CCCN4)c(=O)n3c2)cc1NS(=O)(=O)c1sc(C)nc1C (stereo not shown) [Compound 33]
10 | 50 to 100 | ≤ 1 | COc1ncc(-c2ccc3ncc(OCC4CCCN4C)c(=O)n3c2)cc1NS(=O)(=O)c1sc(C)nc1C (stereo not shown) [Compound 34]
11 |  | 1 to 50 | COc1ncc(-c2ccc3ncc(OCCn4ccc(C)n4)c(=O)n3c2)cc1NS(=O)(=O)c1ccc(F)cc1F [Compound 38]
12 |  | 1 to 50 | COc1ncc(-c2ccc3ncc(OCCn4ccc(C(F)(F)F)n4)c(=O)n3c2)cc1NS(=O)(=O)c1ccc(F)cc1F [Compound 39]
13 |  | 1 to 50 | COc1ncc(-c2ccc3ncc(OCCn4nccc4C)c(=O)n3c2)cc1NS(=O)(=O)c1ccc(F)cc1F [Compound 40]
14 |  | 1 to 50 | COc1ncc(-c2ccc3ncc(CN4CCOCC4)c(=O)n3c2)cc1NS(=O)(=O)c1sc(C)nc1C [Compound 51, N-(2-Methoxy-5-(3-(morpholinomethyl)-4-oxo-4H-pyrido[1,2-a]pyrimidin-7-yl)pyridin-3-yl)-2,4-dimethylthiazole-5-sulfonamide]
15 |  | 1 to 50 | COc1ncc(-c2ccc3ncc(CN(C)C)c(=O)n3c2)cc1NS(=O)(=O)c1sc(C)nc1C [Compound 52]
16 |  | > 200 | COc1ncc(-c2ccc3ncc(OCCN4CCOCC4)c(=O)n3c2)cc1NC(=O)Nc1sc(C)nc1C [Compound 54]
17 |  | > 200 | COc1ncc(-c2ccc3ncc(OCCN4CCOCC4)c(=O)n3c2)cc1NC(=O)c1sc(C)nc1C [Compound 56, N-(2-Methoxy-5-(3-(2-morpholinoethoxy)-4-oxo-4H-pyrido[1,2-a]pyrimidin-7-yl)pyridin-3-yl)-2,4-dimethylthiazole-5-carboxamide]
18 |  | > 200 | COc1ncc(-c2ccc3ncc(OCCN4CCOCC4)c(=O)n3c2)cc1S(=O)(=O)Nc1sc(C)nc1C [Compound 58, N-(2,4-dimethylthiazol-5-yl)-2-methoxy-5-(3-(2-morpholinoethoxy)-4-oxo-4H-4H-pyrido[1,2-a]pyrimidin-7-yl)pyridine-3-sulfonamide]
19 |  | ≤ 1 | COc1ncc(-c2ccc3ncc(OCCN4CCS(=O)(=O)CC4)c(=O)n3c2)cc1NS(=O)(=O)c1sc(C)nc1C [Compound 61]
20 | 100 to 250 | ≤ 1 | COc1ncc(-c2ccc3ncc(OCCN4CCOCC4)c(=O)n3c2)cc1NS(=O)(=O)c1ccc(F)c(F)c1 [Compound 62]
21 | ≤ 50 | ≤ 1 | COc1ncc(-c2ccc3ncc(OCCN4CCOCC4)c(=O)n3c2)cc1NS(=O)(=O)c1c(Cl)cccc1Cl [Compound 63]
22 |  | ≤ 1 | COc1ncc(-c2ccc3ncc(OCCN4CCOCC4)c(=O)n3c2)cc1NS(=O)(=O)c1c(F)cc(F)cc1Cl [Compound 64]
23 | ≤ 50 | ≤ 1 | COc1ncc(-c2ccc3ncc(OCCN4CCOCC4=O)c(=O)n3c2)cc1NS(=O)(=O)c1ccc(F)cc1Cl [Compound 65]

Row | IC50 (MCF-7 cells) [nM] | IC50 (PI3K (p110α)) [nM] | Compound
24 | ≤ 50 | 1 to 50 | COc1ncc(-c2ccc3ncc(OCC(C)N4CCOCC4)c(=O)n3c2)cc1NS(=O)(=O)c1ccc(F)cc1Cl (stereo not shown) [Compound 66]
25 |  | 1 to 50 | COc1ncc(-c2ccc3ncc(OC(C)CN4CCOCC4)c(=O)n3c2)cc1NS(=O)(=O)c1ccc(F)cc1Cl (stereo not shown) [Compound 67]
26 | ≤ 50 | ≤ 1 | COc1ncc(-c2ccc3ncc(OCCN4CCN(C)CC4)c(=O)n3c2)cc1NS(=O)(=O)c1ccc(F)cc1Cl [Compound 68]
27 | ≤ 50 |  | COc1ncc(-c2ccc3ncc(OCCN4CCN(CC(F)(F)F)CC4)c(=O)n3c2)cc1NS(=O)(=O)c1ccc(F)cc1Cl [Compound 69]
28 | 100 to 250 | 1 to 50 | COc1ncc(-c2ccc3ncc(OCC(C)(C)N4CCOCC4)c(=O)n3c2)cc1NS(=O)(=O)c1ccc(F)cc1Cl [Compound 70]
29 |  | 1 to 50 | COc1ncc(-c2ccc3ncc(OCC4CCN(C)CC4)c(=O)n3c2)cc1NS(=O)(=O)c1ccc(F)cc1Cl [Compound 71]
30 | ≤ 50 |  | COc1ncc(-c2ccc3ncc(OCCCN4CCN(C)CC4)c(=O)n3c2)cc1NS(=O)(=O)c1ccc(F)cc1Cl [Compound 72]
31 |  | 1 to 50 | COc1ncc(-c2ccc3ncc(OC4CN(C)C4)c(=O)n3c2)cc1NS(=O)(=O)c1ccc(F)cc1Cl [Compound 73]
32 |  | 1 to 50 | COc1ncc(-c2ccc3ncc(OC4CCN(C)CC4)c(=O)n3c2)cc1NS(=O)(=O)c1ccc(F)cc1Cl [Compound 74]
33 | > 250 | ≤ 1 | COc1ncc(-c2ccc3ncc(OCCN4CCNCC4)c(=O)n3c2)cc1NS(=O)(=O)c1ccc(F)cc1Cl [Compound 75]
34 | > 250 |  | COc1ncc(-c2ccc3ncc(OCC4CCNCC4)c(=O)n3c2)cc1NS(=O)(=O)c1ccc(F)cc1Cl [Compound 76]
35 | > 250 | 1 to 50 | COc1ncc(-c2ccc3ncc(OCC4CCNC4)c(=O)n3c2)cc1NS(=O)(=O)c1ccc(F)cc1Cl (stereo not shown) [Compound 77]
36 | > 250 | 1 to 50 | COc1ncc(-c2ccc3ncc(OCC4CCCN4)c(=O)n3c2)cc1NS(=O)(=O)c1ccc(F)cc1Cl (stereo not shown) [Compound 78]
37 |  | ≤ 1 | COc1ncc(-c2ccc3ncc(OCCN(CCO)CCO)c(=O)n3c2)cc1NS(=O)(=O)c1ccc(F)cc1Cl [Compound 80]
38 |  | 1 to 50 | COc1ncc(-c2ccc3ncc(OCC4CC(F)(F)CN4)c(=O)n3c2)cc1NS(=O)(=O)c1ccc(F)cc1Cl (stereo not shown) [Compound 83]
39 |  | 1 to 50 | COc1ncc(-c2ccc3ncc(OCCN(CCO)CC(F)(F)F)c(=O)n3c2)cc1NS(=O)(=O)c1ccc(F)cc1Cl [Compound 84]
40 |  | ≤ 1 | COc1ncc(-c2ccc3ncc(OCCN4CCOCC4C(N)=O)c(=O)n3c2)cc1NS(=O)(=O)c1ccc(F)cc1Cl (stereo not shown) [Compound 86]
41 |  | ≤ 1 | COc1ncc(-c2ccc3ncc(OCCN4C5CCC4COC5)c(=O)n3c2)cc1NS(=O)(=O)c1ccc(F)cc1Cl [Compound 87]
42 | ≤ 50 |  | COc1ncc(-c2ccc3ncc(OCCN4C[C@@H](C)O[C@@H](C)C4)c(=O)n3c2)cc1NS(=O)(=O)c1ccc(F)cc1Cl [Compound 91]
43 |  | ≤ 1 | COc1ncc(-c2ccc3ncc(OCCNCC(F)(F)F)c(=O)n3c2)cc1NS(=O)(=O)c1ccc(F)cc1Cl [Compound 92]
44 |  | ≤ 1 | COc1ncc(-c2ccc3ncc(OCCN4CCN(S(C)(=O)=O)CC4)c(=O)n3c2)cc1NS(=O)(=O)c1ccc(F)cc1Cl [Compound 93]
45 | > 250 |  | COc1ncc(-c2ccc3ncc(OCCN4CCNC(=O)C4)c(=O)n3c2)cc1NS(=O)(=O)c1ccc(F)cc1Cl [Compound 94]
